The results in this text go back to paper PMC10822893, “Selective herbicide safening in dicot plants: a case study in Arabidopsis” (Frontiers in Plant Science, 2024).

One assay addresses T1, AtGSTU19 (Arabidopsis thaliana, UniProt Q9ZRW8).
T1 construct: gene GSTU19
In words: UPLC-qTOF MS initial velocities, Michaelis-Menten non-linear regression. It is filed as biochemical. As to conditions: co-substrate glutathione; unit printed as µmol (amount, not concentration). The text has this: UPLC-qTOF MS initial velocities, Michaelis-Menten non-linear regression on AtGSTU19

The target in the next assay is T2, AtGSTU7 (Arabidopsis thaliana, UniProt Q9ZW24).
T2 construct: gene GSTU7
T2 sequence (Q9ZW24 1-227): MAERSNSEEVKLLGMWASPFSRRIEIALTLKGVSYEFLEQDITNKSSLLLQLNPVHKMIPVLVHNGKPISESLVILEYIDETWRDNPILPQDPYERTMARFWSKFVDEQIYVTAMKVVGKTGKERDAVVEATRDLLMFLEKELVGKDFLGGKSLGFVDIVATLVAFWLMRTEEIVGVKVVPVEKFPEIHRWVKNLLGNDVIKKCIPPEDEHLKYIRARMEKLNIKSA
The assay is described as above. It is filed as biochemical. As to conditions: co-substrate glutathione; unit printed as µmol (amount, not concentration). The source says:
UPLC-qTOF MS initial velocities, Michaelis-Menten non-linear regression on AtGSTU7

T1 sequence (Q9ZRW8 whole entry): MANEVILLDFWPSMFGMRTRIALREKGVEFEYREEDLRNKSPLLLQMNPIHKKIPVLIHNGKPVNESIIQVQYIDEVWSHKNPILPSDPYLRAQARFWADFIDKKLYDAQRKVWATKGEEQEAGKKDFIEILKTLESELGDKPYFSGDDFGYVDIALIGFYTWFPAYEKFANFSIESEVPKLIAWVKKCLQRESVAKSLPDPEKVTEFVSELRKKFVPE

`CC(C)N(C(=O)COc1nnc(C(F)(F)F)s1)c1ccc(F)cc1` [flufenacet]: the “Km” value stood at 95.08 µmol at AtGSTU19 and 109.57 µmol on AtGSTU7.
